Data taken from ChEMBL document CHEMBL1154739, “Synthesis and AChE inhibitory activity of new chiral tetrahydroacridine analogues from terpenic cyclanones” (Eur J Med Chem, 2010).

Target: T1, Acetylcholinesterase (Rattus norvegicus, UniProt P37136)
T1 sequence (P37136 whole entry): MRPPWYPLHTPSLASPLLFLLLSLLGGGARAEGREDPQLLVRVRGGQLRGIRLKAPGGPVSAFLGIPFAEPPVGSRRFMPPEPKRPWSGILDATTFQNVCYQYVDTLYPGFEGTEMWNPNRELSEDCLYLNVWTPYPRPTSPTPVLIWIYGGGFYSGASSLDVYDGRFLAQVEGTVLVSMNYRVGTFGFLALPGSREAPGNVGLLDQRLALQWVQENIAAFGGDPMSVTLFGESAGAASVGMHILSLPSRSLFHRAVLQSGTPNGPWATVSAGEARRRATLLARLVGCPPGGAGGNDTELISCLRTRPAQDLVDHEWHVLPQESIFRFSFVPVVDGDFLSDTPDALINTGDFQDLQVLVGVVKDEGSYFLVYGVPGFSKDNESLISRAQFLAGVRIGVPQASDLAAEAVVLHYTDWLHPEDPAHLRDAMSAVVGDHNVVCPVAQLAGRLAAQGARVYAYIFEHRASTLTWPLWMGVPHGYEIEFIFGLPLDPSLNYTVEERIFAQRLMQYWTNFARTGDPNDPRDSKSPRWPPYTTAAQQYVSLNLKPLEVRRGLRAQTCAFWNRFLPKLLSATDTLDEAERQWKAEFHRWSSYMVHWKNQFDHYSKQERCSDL
Description: Inhibition of AChE from rat cortex by Ellman assay

## C[C@@H]1c2c(nc3ccccc3c2N)[C@H]2C[C@@H]1C2(C)C
  IC50: 2.62 µM

## C[C@@H]1CCc2c(nc3ccccc3c2N)C1
  IC50: 1.38 µM

## CC(C)[C@H]1CC[C@H](C(C)C)c2c1nc1ccccc1c2N
  IC50: 7.22 µM

## CC1(C)[C@H]2Cc3c(nc4ccccc4c3N)[C@@H]1C2
  IC50: 1.93 µM

## CC(C)[C@H]1CCc2c(nc3ccccc3c2N)C1
  IC50: 0.816 µM

## C[C@H]1CC[C@H](C(C)(C)C)c2nc3ccccc3c(N)c21
  IC50: 1.35 µM

## C[C@H]1CC(=O)C(C)(C)c2nc3ccccc3c(N)c2C1
  IC50: 0.288 µM

## C[C@H]1Cc2nc3ccccc3c(N)c2C1
  IC50: 0.061 µM

## CC(C)[C@@H]1Cc2nc3ccccc3c(N)c2C1
  IC50: 2.45 µM
